From patent publication US20110288082A1, “METHODS AND COMPOSITIONS FOR INHIBITION OF THE TRANSITIONAL ENDOPLASMIC RETICULUM ATPASE” (priority 2010, published 2011)
Read-outs that look alike come from different tables or passages of the source.

Columns and labels:
[1] = test system: p97-dependent Ub^G76V-GFP degradation in HeLa cells; assay: Ub^G76V-GFP degradation (turn-over) assay; type: cell-based, human; conditions: Homo sapiens, HeLa
Method: Ub^G76V-GFP Degradation Assay
Two GFP images with 100 ms exposure time per well were acquired and the average GFP intensity per area of a HeLa cell was determined by using MetaXpress software. Mean GFP intensity of 300-500 cells was calculated using Excel. Normalized GFP intensity was calculated using the following formula: (Test compound−Background)/(Basal GFP intensity—Background). Where: Test compound is defined as Mean GFP intensity of Ub^G76V-GFP-expressing cells treated with the test compound. Background is defined as background GFP intensity of HeLa cells. Basal GFP intensity is defined as mean GFP intensity of Ub^G76V-GFP-expressing cells treated with DMSO. […] The percent of remaining k for each compound is calculated using the following formula: (Test compound/DMSO control)*100. Where: Test_compound is defined as k determined from wells containing test compound, DMSO control is defined as k determined from wells containing DMSO.

p97 = p97 (Homo sapiens, UniProt P55072); assay: p97 ATPase assay (Kinase Glo Plus; biomol green for compounds that interfere with luciferase); type: biochemical
Method: Assay Buffer (20 μL of 2.5× concentration, where 1×=50 mM Tris pH 7.4, 20 mM MgCl2, 1 mM EDTA, 0.5 mM TCEP) was dispensed into each well of a 96 well plate. Purified p97 (25 μL of 50 μM) was diluted in 975 μL, of 1× Assay Buffer and 10 μL was dispensed in each well. Test compound (10 μL) or 5% DMSO (10 μL) was then added to each well and the plate was incubated at room temperature for 10 min. The ATPase assay was carried out by adding to each well 10 μL of 500 μM ATP (pH 7.5), incubating at room temperature for 60 min, and then adding 50 μL Kinase Glo Plus reagent (Promega) followed by a final 10 min incubation at room temperature in the dark. Luminescence was read on an Analyst AD (Molecular Devices). Compounds were assayed at a range of concentrations (0, 0.048, 0.24, 1.2, 6, 30 μM) in triplicate. The percent of remaining activity for each reaction was calculated using the following mathematical expression: ((Test Compound-High Control)/(Low Control-High Control))*100. Test_Compound is defined as wells containing test compound, Low_Control is defined as wells containing DMSO, High_Control is defined as wells containing no p97 protein. […] The result was expressed as mean +/− standard error. For assays with Myriad 12 and 19, 100 μL of biomol green reagent (Enzo Life Sciences) was added to each well instead of kinase Glo Plus (Promega) and absorbance at 630 nm was measured. This was done because these compounds interfered with luciferase activity. […]

[2] = read-out: IC50 (μM) Ub^G76V-GFP turn over, Ub^G76V-GFP-expressing HeLa cells, degradation rate constant k from 90 to 180 min, mean +/- standard error
[3] = purified p97, ATP, 60 min room temperature, mean +/- standard error
[4] = read-out: IC50 (μM) Ub^G76V-GFP turn over, p97-dependent Ub^G76V-GFP degradation turn-over assay

Chain of p97 (P55072 2-806 limits assumed): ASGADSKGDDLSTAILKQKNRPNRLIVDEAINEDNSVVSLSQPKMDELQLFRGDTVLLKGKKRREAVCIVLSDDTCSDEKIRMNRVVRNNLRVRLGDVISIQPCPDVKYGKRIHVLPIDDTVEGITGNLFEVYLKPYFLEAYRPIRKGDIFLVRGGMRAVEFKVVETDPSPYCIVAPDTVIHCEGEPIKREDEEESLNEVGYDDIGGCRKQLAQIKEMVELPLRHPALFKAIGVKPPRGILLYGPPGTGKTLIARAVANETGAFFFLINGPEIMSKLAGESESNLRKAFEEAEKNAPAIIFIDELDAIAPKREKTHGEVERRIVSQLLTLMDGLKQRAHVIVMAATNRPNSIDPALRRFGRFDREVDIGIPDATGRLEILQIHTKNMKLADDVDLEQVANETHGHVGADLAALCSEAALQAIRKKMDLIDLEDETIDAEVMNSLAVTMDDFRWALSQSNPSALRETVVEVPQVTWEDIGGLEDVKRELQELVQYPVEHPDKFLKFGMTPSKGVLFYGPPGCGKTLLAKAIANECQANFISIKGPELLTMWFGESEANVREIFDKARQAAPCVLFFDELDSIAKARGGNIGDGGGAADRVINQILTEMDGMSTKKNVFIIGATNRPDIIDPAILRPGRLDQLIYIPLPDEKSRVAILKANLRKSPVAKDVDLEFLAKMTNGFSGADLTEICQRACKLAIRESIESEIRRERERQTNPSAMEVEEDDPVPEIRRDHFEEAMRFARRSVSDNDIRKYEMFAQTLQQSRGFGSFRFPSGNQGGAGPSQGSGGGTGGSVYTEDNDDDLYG

SMILES | IC50 [1, 2] [µM] | IC50 (p97; [3]) [µM] | IC50 (p97; p97 ATPase assay) [µM] | IC50 [1, 4] [µM]
FC(F)(F)c1ccc(CNc2nc(NCc3ccccc3)c3ccccc3n2)cc1 [IV-16] | 2.3 ± 0.3 |  |  | 
Cc1cccc(CNc2nc(NCc3ccccc3)c3ccccc3n2)c1 [IV-11] | 2.5 ± 0.5 | 2.3 ± 0.4 |  | 
Ic1cccc(Nc2nc(NCc3ccccc3)c3ccccc3n2)c1 [II-21] | 36 ± 4 | 5.2 ± 1.9 |  | 
Clc1ccc2nc(NCc3ccccc3)nc(NCc3ccccc3)c2c1 [VI-3] | 6.6 ± 0.9 | 1.6 ± 0.4 |  | 
Clc1cccc(Nc2nc(NCc3ccc(Br)cc3)c3ccccc3n2)c1 [III-4] | 10 ± 3 | 7.4 ± 2 |  | 
N#CC(C(=O)COC(=O)CCC(=O)c1ccc2c(c1)OCCO2)=C1Nc2ccccc2N1 [XVIII] | 6.3 ± 0.6 | 10 ± 4 |  | 
O=[N+]([O-])c1cccc(-c2nc(NCc3ccccc3)c3ccccc3n2)c1 [I-4] | 4 ± 1.6 |  |  | 
Clc1ccc(-c2nc(NCc3ccccc3)c3ccccc3n2)cc1Cl [I-11] | 37 ± 6 | 7.1 ± 0.4 |  | 
COc1cccc(CNc2nc(Nc3cccc(Cl)c3)nc3ccccc23)c1 [III-15] | 9.9 ± 1.6 | 1 ± 0.1 |  | 
c1ccc(CNc2nc(-c3ccccc3)nc3ccccc23)cc1 [I-2] | 12 ± 3 | 4.2 ± 2.3 |  | 
COc1ccc(-c2nc(NCc3ccccc3)c3ccc(Cl)cc3n2)cc1 [I-34] |  |  | 25 ± 11 | 70 ± 30
Nc1nc(CCl)nc(Nc2ccc(Cl)c(Cl)c2)n1 [XVII] | 5.7 ± 0.8 | 15 ± 4 |  | 
Clc1cccc(Nc2nc(Nc3ccccc3)c3ccccc3n2)c1 [XXV-2] |  |  | 34 ± 16 | 12 ± 2
N#CC(C(=O)COC(=O)COc1ccc(Cl)cc1)=C1Nc2ccccc2N1 [XXXII] |  |  |  | 2.6 ± 0.2
Clc1cccc(Nc2nc(NCc3ccccc3Cl)c3ccccc3n2)c1 [III-7] | 18 ± 5 | 4.7 ± 1.4 |  | 
c1ccc(CNc2nc(N3CCOCC3)nc3ccccc23)cc1 [XLIV] |  |  |  | 36 ± 9
O=[N+]([O-])c1cccc(Nc2nc(NCc3ccccc3)c3ccccc3n2)c1 [II-22] | 19 ± 2 | 5.2 ± 0.5 |  | 
c1ccc(CNc2nc(N3CCOc4ccccc43)nc3c2CCCC3)cc1 [VIII] | 3.5 ± 0.4 | 0.11 ± 0.03 |  | 
Brc1cccc(Nc2nc(NCc3ccccc3)c3ccccc3n2)c1 [II-15] | 4.3 ± 0.8 | 2.5 ± 0.5 |  | 
CCc1ccc(Nc2nc(N)nc(CCl)n2)cc1 [XXIX] |  |  |  | 18 ± 3
c1ccc(CNc2nc(N3CCOc4ccccc43)nc3ccsc23)cc1 [IX] | 6.4 ± 1 | 0.4 ± 0.1 |  | 

SMILES | IC50 [1, 2] [µM] | IC50 (p97; [3]) [µM] | IC50 (p97; p97 ATPase assay) [µM] | IC50 [1, 4] [µM]
COc1cccc2c(NCc3ccccc3)nc(N3CCOCC3)nc12 [XI-2] |  |  | 31 ± 7 | 47 ± 9
Nc1nc(CCl)nc(Nc2ccc(Oc3ccccc3)cc2)n1 [XV] | 3.7 ± 0.6 | 14 ± 5 |  | 
Cc1cc(F)cc(Nc2nc(NCc3ccccc3)c3ccccc3n2)c1 [V-3] | 5.4 ± 0.8 | 0.7 ± 0.05 |  | 
Clc1cc(Cl)cc(Nc2nc(NCc3ccccc3)c3ccccc3n2)c1 [II-19] | 13 ± 1 | 8.2 ± 0.3 |  | 
COc1ccc(-c2cccc3c(NCc4ccccc4)nc(N4CCOc5ccccc54)nc23)cc1 [VII-11] | 9 ± 1 | 1.1 ± 0.1 |  | 
Fc1ccc(Cl)cc1Nc1nc(NCc2ccccc2)c2ccccc2n1 [II-18] | 13 ± 2 | 13 ± 3 |  | 
COc1cccc2c(NCc3ccccc3)nc(N3CCOc4ccccc43)nc12 [VII-6] | 3.3 ± 0.4 | 0.2 ± 0.02 |  | 
COc1cccc2c(NCc3ccccn3)nc(N3CCNc4ccccc43)nc12 [XLIII] |  |  |  | 16 ± 2
Cc1ccc(CNc2nc(NCc3ccccc3)c3ccccc3n2)cc1 [IV-1] | 1.5 ± 0.4 |  |  | 
COc1cccc2c(NCc3ccccc3)nc(Nc3ccccc3O)nc12 [XI-10] | 2.8 ± 0.5 | 2.6 ± 0.4 |  | 
Cc1ccc(Nc2nc(NCc3ccccc3)c3ccccc3n2)cc1F [V-7] | 5.2 ± 1.2 | 0.9 ± 0.2 |  | 
Fc1cccc2c(NCc3ccccc3)nc(NCc3ccccc3)nc12 [VI-10] | 18 ± 2 | 3.1 ± 0.5 |  | 
Nc1nc(Nc2cccc(Cl)c2)nc(C(Cl)Cl)n1 [XXVII] |  |  |  | 13 ± 3
Clc1ccc(Nc2nc(NCc3ccccc3)c3ccccc3n2)cc1 [II-3] | 5.9 ± 1.2 | 5.4 ± 2 |  | 
Clc1ccc2c(NCc3ccccc3)nc(-c3ccccc3)nc2c1 [Cpd I-32] |  |  |  | 12 ± 4
CN(Cc1ccccc1)c1nc(-c2ccccc2)nc2ccccc12 [Cpd I-25] |  |  |  | 17 ± 5
N#CC(C(=O)COC(=O)c1ccccc1Cc1ccccc1)=C1Nc2ccccc2N1 [XXXIII] |  |  |  | 3.4 ± 0.6
Clc1cccc(Nc2nc(NCc3ccccc3)c3ccccc3n2)c1 [II-13] | 7.8 ± 1.3 |  |  | 
Fc1cccc(Nc2nc(NCc3ccccc3)c3ccccc3n2)c1 [II-14] | 2.7 ± 0.4 |  |  | 
N#CC(C(=O)COC(=O)COc1cccc(Br)c1)=C1Nc2ccccc2N1 [XXXIV] |  |  |  | 5.9 ± 0.8
COc1cccc2c(NCc3ccccc3)nc(Nc3cccc(Cl)c3)nc12 [XI-16] | 5.4 ± 1 |  |  | 

SMILES | IC50 [1, 2] [µM] | IC50 (p97; [3]) [µM] | IC50 (p97; p97 ATPase assay) [µM] | IC50 [1, 4] [µM]
Nc1nc(CCl)nc(Nc2cccc3ccccc23)n1 [XXX] |  |  |  | 14 ± 3
Cc1ccc(-c2nc(NCc3ccccc3)c3ccc(Cl)cc3n2)cc1 [I-33] |  |  |  | 24 ± 5
COc1cccc2c(NCc3ccccc3)nc(NCc3cccs3)nc12 [XI-14] | 1.8 ± 0.3 |  |  | 
Nc1nc(CCl)nc(N2CCCc3ccccc32)n1 [XXVIII] |  |  |  | 17 ± 3
Fc1cccc(CNc2nc(NCc3ccccc3)c3ccccc3n2)c1 [IV-13] | 2.8 ± 0.4 |  |  | 
c1ccc(CNc2nc(N3CCCCC3)nc3ccccc23)cc1 [XXII] |  |  |  | 7.3 ± 2
Nc1nc(CCl)nc(Nc2ccc(Cl)cc2)n1 [XXXI] |  |  |  | 8 ± 2
c1ccc(CNc2nc(Nc3ccccc3)nc3ccccc23)cc1 [II-1] | 3.1 ± 0.4 |  |  | 
Brc1cccc(CNc2nc(NCc3ccccc3)c3ccccc3n2)c1 [IV-14] | 2.8 ± 0.4 |  |  | 
Cc1cccc(C)c1OCC(=O)OCC(=O)C(C#N)=C1Nc2ccccc2N1 [XXXVI] |  |  |  | 15 ± 2
COc1cccc(CNc2nc(NCc3ccccc3)c3ccccc3n2)c1 [IV-15] | 2.5 ± 0.8 |  |  | 
Nc1nc(CCl)nc(N2CCc3ccccc32)n1 [XXVI] |  |  |  | 10.4 ± 1.5
Clc1ccccc1CNc1nc(-c2ccccc2)nc2ccccc12 [Cpd I-14] |  |  |  | 11 ± 3
N#CC(C(=O)COC(=O)C1COc2ccccc2O1)=C1Nc2ccccc2N1 (stereo not drawn) [XL] |  |  |  | 10 ± 1.4
COc1cccc2c(NCc3ccccc3)nc(Nc3cccc(F)c3)nc12 [XI-17] | 4.8 ± 0.7 |  |  | 
Cc1cc(OCC(=O)OCC(=O)C(C#N)=C2Nc3ccccc3N2)ccc1Cl [XXXVIII] |  |  |  | 16 ± 1.4
Cc1cc(C)cc(OCC(=O)OCC(=O)C(C#N)=C2Nc3ccccc3N2)c1 [XXXVII] |  |  |  | 13 ± 1.4
Clc1ccccc1-c1nc(NCc2ccccc2)c2ccccc2n1 [I-3] | 8 ± 3 |  |  | 
N#CC(C(=O)COC(=O)CNc1ccc(C(F)(F)F)cc1[N+](=O)[O-])=C1Nc2ccccc2N1 [XLI] |  |  |  | 6.5 ± 0.8
N#CC(C(=O)COC(=O)CCC(=O)c1ccc2c(c1)OCCO2)=C1Nc2ccccc2N1 [XXXIX] |  |  |  | 6.3 ± 0.6
CCCOc1ccc(C(=O)CCC(=O)OCC(=O)C(C#N)=C2Nc3ccccc3N2)cc1 [XXXV] |  |  |  | 6.1 ± 0.6
